Reference: ChEMBL document CHEMBL1275512, “Comparative in vitro activities of the investigational fluoroquinolone DC-159a and other antimicrobial agents against human mycoplasmas and ureaplasmas” (2008)
In brackets after ≈: the same amount, converted by molar mass. Activity calls are given as the source filed them. The rule behind the calls is not given here.

How the values were obtained:
[1] = tested on: Mycoplasmoides pneumoniae; experiment: Antimicrobial activity against Mycoplasma pneumoniae by broth microdilution method; format: functional
Mycoplasma fermentans = experiment: Antimicrobial activity against Mycoplasma fermentans by broth microdilution method; format: functional; conditions: Mycoplasmopsis fermentans
Ureaplasma parvum [2] = experiment: Antimicrobial activity against fluoroquinolone-resistant Ureaplasma parvum by broth microdilution method; format: functional
Ureaplasma urealyticum = experiment: Antimicrobial activity against Ureaplasma urealyticum by broth microdilution method; format: functional
Metamycoplasma hominis = experiment: Antimicrobial activity against Mycoplasma hominis by broth microdilution method; format: functional
Mycoplasma genitalium = experiment: Antimicrobial activity against Mycoplasma genitalium by broth microdilution method; format: functional; conditions: Mycoplasmoides genitalium
Ureaplasma parvum [3] = experiment: Antimicrobial activity against Ureaplasma parvum by broth microdilution method; format: functional
[4] = tested on: Mycoplasmoides pneumoniae; experiment: Bactericidal activity against Mycoplasma pneumoniae at 8 X MIC after 120 hrs; format: functional, organism-based
[5] = tested on: Mycoplasmoides pneumoniae; experiment: Bactericidal activity against Mycoplasma pneumoniae at MIC after 48 hrs; format: functional, organism-based
[6] = tested on: Mycoplasmoides pneumoniae; experiment: Bactericidal activity against Mycoplasma pneumoniae assessed as log reduction in bacterial load at MIC after 24 hrs; format: functional
[7] = tested on: Mycoplasmoides pneumoniae; experiment: Bactericidal activity against Mycoplasma pneumoniae assessed as log reduction in bacterial load at MIC after 72 hrs; format: functional

Compound	MIC50 [1] [µg/mL]	MIC90 [1] [µg/mL]	MIC50 (Mycoplasma fermentans) [µg/mL]	MIC90 (Mycoplasma fermentans) [µg/mL]	MIC (Ureaplasma parvum [2]) [µg/mL]	MIC50 (Ureaplasma urealyticum) [µg/mL]	MIC90 (Ureaplasma urealyticum) [µg/mL]	MIC50 (Metamycoplasma hominis) [µg/mL]	MIC90 (Metamycoplasma hominis) [µg/mL]	MIC (Mycoplasma genitalium) [µg/mL]	MIC50 (Ureaplasma parvum [3]) [µg/mL]	MIC90 (Ureaplasma parvum [3]) [µg/mL]	Activity [4]	Activity [5]	MIC (Ureaplasma urealyticum) [µg/mL]	MIC [1] [µg/mL]	FC [6]	FC [7]	MIC (Ureaplasma parvum [3]) [µg/mL]
O=C(O)c1cn(C2CC2)c2cc(N3CCNCC3)c(F)cc2c1=O [CIPROFLOXACIN]	2 (≈ 6.04 µM)	4 (≈ 12.1 µM)	0.063 (≈ 0.19 µM)	0.125 (≈ 0.377 µM)	32 (≈ 96.6 µM)	4 (≈ 12.1 µM)	8 (≈ 24.1 µM)	0.5 (≈ 1.51 µM)	1 (≈ 3.02 µM)	0.5 (≈ 1.51 µM)	2 (≈ 6.04 µM)	16 (≈ 48.3 µM)							
C[C@H]1c2cccc(O)c2C(=O)C2=C(O)[C@]3(O)C(=O)C(C(N)=O)=C(O)[C@@H](N(C)C)[C@@H]3[C@@H](O)[C@@H]21.O [DOXYCYCLINE]	0.25	0.5	0.25	1		0.125	0.5	2	8	0.032	0.125	2							
CN(C)[C@@H]1C(O)=C(C(N)=O)C(=O)[C@@]2(O)C(O)=C3C(=O)c4c(O)cccc4[C@@](C)(O)[C@H]3C[C@@H]12 [TETRACYCLINE]	0.5 (≈ 1.13 µM)	1 (≈ 2.25 µM)	0.5 (≈ 1.13 µM)	1 (≈ 2.25 µM)		0.5 (≈ 1.13 µM)	2 (≈ 4.5 µM)	0.5 (≈ 1.13 µM)	16 (≈ 36 µM)	0.25 (≈ 0.563 µM)	0.5 (≈ 1.13 µM)	8 (≈ 18 µM)							
CC[C@H]1OC(=O)[C@H](C)[C@@H](O[C@H]2C[C@@](C)(OC)[C@@H](O)[C@H](C)O2)[C@H](C)[C@@H](O[C@@H]2O[C@H](C)C[C@H](N(C)C)[C@H]2O)[C@](C)(O)C[C@@H](C)C(=O)[C@H](C)[C@@H](O)[C@]1(C)O [ERYTHROMYCIN]	0.004 (≈ 0.00545 µM)	0.004 (≈ 0.00545 µM)	0.032 (≈ 0.0436 µM)	0.125 (≈ 0.17 µM)		2 (≈ 2.73 µM)	4 (≈ 5.45 µM)	0.016 (≈ 0.0218 µM)	0.032 (≈ 0.0436 µM)	≤ 0.001	1 (≈ 1.36 µM)	4 (≈ 5.45 µM)	Active						
COc1c(N2C[C@@H]3CCCN[C@@H]3C2)c(F)cc2c(=O)c(C(=O)O)cn(C3CC3)c12 [MOXIFLOXACIN]	0.125 (≈ 0.311 µM)	0.125 (≈ 0.311 µM)	0.032 (≈ 0.0797 µM)	0.063 (≈ 0.157 µM)	4 (≈ 9.96 µM)	0.25 (≈ 0.623 µM)	0.5 (≈ 1.25 µM)	0.063 (≈ 0.157 µM)	0.063 (≈ 0.157 µM)	0.016 (≈ 0.0399 µM)	0.5 (≈ 1.25 µM)	2 (≈ 4.98 µM)		Active	0.25 (≈ 0.623 µM)				
CC[C@H]1OC(=O)[C@H](C)[C@@H](O[C@H]2C[C@@](C)(OC)[C@@H](O)[C@H](C)O2)[C@H](C)[C@@H](O[C@@H]2O[C@H](C)C[C@H](N(C)C)[C@H]2O)[C@](C)(O)C[C@@H](C)CN(C)[C@H](C)[C@@H](O)[C@]1(C)O [AZITHROMYCIN]	≤ 0.001	≤ 0.001				2 (≈ 2.67 µM)	4 (≈ 5.34 µM)			≤ 0.001	1 (≈ 1.34 µM)	2 (≈ 2.67 µM)				≤ 0.001			
COc1c(N2CC3(CC3)[C@](C)(N)C2)c(F)cc2c(=O)c(C(=O)O)cn([C@@H]3C[C@@H]3F)c12	0.063 (≈ 0.15 µM)	0.063 (≈ 0.15 µM)	0.016 (≈ 0.0381 µM)	0.032 (≈ 0.0763 µM)	4 (≈ 9.54 µM)	0.5 (≈ 1.19 µM)	1 (≈ 2.38 µM)	0.125 (≈ 0.298 µM)	0.25 (≈ 0.596 µM)	0.016 (≈ 0.0381 µM)	0.5 (≈ 1.19 µM)	2 (≈ 4.77 µM)					3	3	
C[C@H]1COc2c(N3CCN(C)CC3)c(F)cc3c(=O)c(C(=O)O)cn1c23.C[C@H]1COc2c(N3CCN(C)CC3)c(F)cc3c(=O)c(C(=O)O)cn1c23.O [LEVOFLOXACIN]	0.5	1	0.063	0.125	16	1	1	0.25	0.5	1	0.5	2							0.5
